Experimental data as given in ChEMBL document CHEMBL1156829 (Proc Natl Acad Sci U S A, 2008).

Key:
Plasmodium falciparum [1] = assay: NOVARTIS: Inhibition of Plasmodium falciparum 3D7 (drug-susceptible) proliferation in erythrocyte-based infection assay; assay type: functional, organism-based; details: Plasmodium falciparum, 3D7
Plasmodium falciparum [2] = assay: NOVARTIS: Inhibition of Plasmodium falciparum W2 (drug-resistant) proliferation in erythrocyte-based infection assay; assay type: functional, organism-based; details: Plasmodium falciparum, W2; read-out: EC50
[3] = NOVARTIS: Cytotoxicity against human hepatocellular carcinoma cell line (Huh7); assay type: toxicity, cell-based, Huh-7; details: Huh7 cells (hepatocellular carcinoma cell line)

| Structure (SMILES) | EC50 (Plasmodium falciparum [1]) [nM] | EC50 (Plasmodium falciparum [2]) [nM] | CC50 [3] [nM] |
| --- | --- | --- | --- |
| O=C1/C(=C\c2ccccc2)SC(=Nc2ccccc2)N1C1CCCCC1 | 348 | 545 | > 100000 |
| CCOC(=O)c1cnc2ccc(CC)cc2c1O | 716 | 525 | > 100000 |
| O=C(COc1ccccc1)NC(c1ccc([N+](=O)[O-])cc1)c1cc(Cl)c2cccnc2c1O (stereo not drawn) | 605 | 434 | > 80600 |
| Cc1cc(NC(=O)c2ccc(S(=O)(=O)N(Cc3ccccc3)C(C)C)cc2)no1 | 2690 | 538 | > 100000 |
| O=c1cc[nH]c2cc(N3CCCCCC3)c(F)cc12 | 1310 | 497 | > 92000 |
| CCc1c(C)c(=N)c2ccccc2n1C | 701 | 534 | > 100000 |
| CCCCc1c(C)nc2ccc(Br)cc2c1O | 1960 | 532 | > 100000 |
| COCCCNc1nc2cc(OC)c(OC)cc2c2nc(-c3ccccc3)nn12 | 621 | 541 | > 100000 |
| CN1CCN(Cc2c(O)ccc3c(=O)c(Oc4ccc(C(C)(C)C)cc4)c(C(F)(F)F)oc23)CC1 | 1800 | 547 | > 100000 |
| CCOc1ccc(NC(=O)c2ccc(F)c(S(=O)(=O)NC3CCCC(C)C3C)c2)cc1 (stereo not drawn) | 1040 | 178 | 32200 |
| CN(C)c1ccc(C2N(C)c3ccccc3N2C)cc1 | 913 | 551 | > 100000 |
| Cc1n(C)c2ccccc2[n+]1CC(=O)c1ccccc1 | 114 | 547 | > 100000 |
| C=CCSc1nnc2c(n1)[nH]c1ccc(OCC)cc12 | 5620 | 549 | > 100000 |
| COc1ccc(CNCCN2CCN(c3ccccc3)C[C@@H]2Cc2ccc(O)cc2)cc1 | 52.1 | 54.9 | > 10000 |
| O=C1CN(C(=O)CCC2CCCCC2)C(c2ccc(F)cc2)c2cc(F)ccc2N1 (stereo not drawn) | 566 | 365 | 64400 |
| OC(CNc1cccc2ccccc12)Cn1c2ccc(Cl)cc2c2cc(Cl)ccc21 (stereo not drawn) | 403 | 306 | 54200 |
| CC(C)(C[N+](C)(C)C)C1OC2CCCCC2C2C=CCCC21 (stereo not drawn) | 999 | 565 | > 100000 |
| O=C(NC1CC1)c1ccc(CSCc2ccccc2Cl)o1 | 503 | 562 | > 100000 |
| O=C(NCc1c(Cl)cccc1Sc1ccc(Cl)cc1)c1ccc2c(c1)CCO2 | 69.1 | 56.2 | > 10000 |

| Structure (SMILES) | EC50 (Plasmodium falciparum [1]) [nM] | EC50 (Plasmodium falciparum [2]) [nM] | CC50 [3] [nM] |
| --- | --- | --- | --- |
| O=C(c1ccc([N+](=O)[O-])cc1)c1ccc(Cl)c(Cl)c1 | 251 | 555 | > 100000 |
| Clc1ccc(Nc2nc(Nc3ccc(Cl)cc3)c3ccccc3n2)cc1 | 148 | 110 | 19600 |
| CN1C=CC(=Cc2sc3ccccc3[n+]2C)C=C1 | 208 | 558 | > 100000 |
| CCn1c(=NC(=O)c2cc(=O)c3ccccc3o2)sc2c(OC)ccc(OC)c21 | 1500 | 55.6 | > 10000 |
| CCOc1cc(Br)cc(C=C2NC(=S)NC2=O)c1O | > 3680 | 554 | > 100000 |
| Cc1ccn2c(NC(C)(C)CC(C)(C)C)c(-c3ccccc3OC(=O)C3C[C@H]3c3ccccc3)nc2c1 (stereo partly drawn) | 727 | 55.3 | > 10000 |
| CCc1nc2nc(C)cc(Nc3ccc(F)c(Cl)c3)n2n1 | 543 | 547 | > 100000 |
| COc1ccc(C(NC(=O)c2cccnc2)c2cc(Cl)c3cccnc3c2O)cc1 (stereo not drawn) | 945 | 528 | > 100000 |
| Cc1cccc(NC(c2ccccc2F)c2ccc3cccnc3c2O)n1 (stereo not drawn) | 2940 | 331 | > 61800 |
| COC(=O)c1c(OCc2ccc(F)cc2)cc(=O)n2c1CCN(Cc1ccccc1)CC2 | 3940 | 538 | > 100000 |
| Cc1cccc(NC(c2ccncc2)c2ccc3cccnc3c2O)n1 (stereo not drawn) | 669 | 375 | 69900 |
| Cc1cc(C)cc(Nc2cc(C)nc3nc(C)nn23)c1 | 594 | 536 | > 100000 |
| COc1cc(OC)cc(C(=O)Oc2ccccc2-c2nc3cc(C)ccn3c2NC(C)(C)CC(C)(C)C)c1 | 946 | 54 | > 10000 |
| Clc1cccc(-c2cn3ccnc3c(N3CCN(c4ccncc4)CC3)n2)c1 | > 1250 | > 52.6 | > 10000 |
| COc1ccc(C[n+]2cc(-c3ccc(Cl)cc3)n3ccccc32)cc1 | 413 | 524 | > 100000 |
| COc1ccc(OC)c(C2C3=C(CC(C)(C)CC3=O)N(c3ccc(Cl)c(Cl)c3)C3=C2C(=O)CC(C)(C)C3)c1 | 430 | 546 | > 100000 |
| Cc1nc2ccccc2n1S(C)(=O)=O | 59.6 | 54.3 | > 10000 |
| CC(C)CNC(=O)c1cnc(NCCCN2CCCCC2C)nc1NC1CCCC1 (stereo not drawn) | 910 | 52.8 | > 10000 |
| O=C(/C=C/c1cccnc1)C12CC3CC(CC(C3)C1)C2 | 102 | 52.8 | > 10000 |

| Structure (SMILES) | EC50 (Plasmodium falciparum [1]) [nM] | EC50 (Plasmodium falciparum [2]) [nM] | CC50 [3] [nM] |
| --- | --- | --- | --- |
| CCCCNC(=O)C(CC(C)C)N1C(=O)c2cc(NC(C)=O)ccc2NC(=O)[C@@H]1C (stereo partly drawn) | 28.2 | 67.2 | > 12800 |
| Cc1ccccc1CN1CCN(CC=Cc2ccccc2)CCC1=O | 1430 | 531 | > 100000 |
| Cc1cc(N2CCN(Cc3ccc(F)cc3)CC2)n2c(nc3ccccc32)c1C#N | 625 | 530 | > 100000 |
| CCN1CCN(Cc2cc(Cl)cc(Cl)c2O)CC1 | 3000 | 529 | > 100000 |
| Cc1nc(N2CCC(C)CC2)c2c(C)c(C(=O)Nc3ccc(C(F)(F)F)cc3)sc2n1 | > 12500 | 562 | > 100000 |
| CCCN(CCC)S(=O)(=O)c1cc(Br)cc2c1N(C(C)=O)CC2 | 1990 | 561 | > 100000 |
| CCOc1ccc(CCNC(=O)c2cccs2)cc1OCC | 890 | 560 | > 100000 |
| CCc1ccc(C2C(C(=O)Nc3ccccc3)=C(C)Nc3c(C(=O)Nc4ccc(C)cc4)cnn32)cc1 (stereo not drawn) | 1500 | 554 | > 100000 |
| Cc1cc(C)cc(NC2=C(N)C(=O)c3ccccc3C2=O)c1 | 969 | 551 | > 100000 |
| CCOC(=O)c1nnn(-c2nonc2N)c1-c1ccc(OC)cc1 | 653 | 564 | > 100000 |
| CCCNC1=C(N(C(C)=O)c2cccc(F)c2)C(=O)c2ccccc2C1=O | 29 | 28.4 | 5390 |
| COc1ccc(-c2c[n+](CC(=O)c3cccc(OC)c3)c3n2CCC3)cc1 | 954 | 530 | > 100000 |
| CC(C)(C)c1nn(-c2ccc(Cl)cc2)c2[nH]c(=O)c(CNCc3ccccc3)cc12 | 731 | 539 | > 100000 |
| CCOC(=O)c1cnc2ccccc2c1Nc1ccc(C(C)=O)cc1 | 343 | 386 | > 73800 |
| CCOC(=O)C1CCN(C(c2cc3cc(OC)c(OC)cc3[nH]c2=O)c2nnnn2C(C)(C)C)CC1 (stereo not drawn) | 889 | 567 | > 100000 |
| CCCCSCC(O)CN1CCCCC1 (stereo not drawn) | 5280 | 534 | > 100000 |
| CCN(CC)CCNc1ncnc2c1[nH]c1ccc(F)cc12 | 277 | 169 | 31500 |
| O=S(=O)(c1ccc(Cl)cc1)N1CCN(C(=S)NCc2ccco2)CC1 | 973 | 524 | > 100000 |
